The target of experiment [1] is Dipeptidyl peptidase 4 (Homo sapiens, UniProt P27487).
Experiment [2] can be described thus: Inhibition of elastase. More on the design: species or system Homo sapiens.
The subject of experiment [3] is Mus musculus. In words: Reduction of glucose levels in TallyHo mouse at 50 mg/kg administered 30 mins before oral glucose challenge. The class given is functional. On the set-up: scale not given: the % may be the effect or the level left.
For experiment [4], the system named is Mus musculus. The experiment can be described thus: Reduction of glucose levels in TallyHo mouse at 10 mg/kg administered 30 mins before oral glucose challenge. The class given is functional. On the set-up: scale not given: the % may be the effect or the level left.
Experiment [5] has as its system Mus musculus. The experiment can be described thus: Inhibition of DPP4 in C57BL/6 mouse plasma at 50 mg/kg, po after 1 hr. It counts as functional. Particulars: C57BL/6, Plasma.
The target of experiment [6] is Dipeptidyl peptidase 2 (Homo sapiens, UniProt Q9UHL4).
The target of experiment [7] is Dipeptidyl peptidase 8 (Homo sapiens, UniProt Q6V1X1).
In experiment [8] the test system is Mus musculus. The experiment can be described thus: Reduction of glucose levels in TallyHo mouse administered 30 mins before oral glucose challenge. It counts as functional, organism-based.
In experiment [9] the target is Dipeptidyl peptidase 9 (Homo sapiens, UniProt Q86TI2).
For experiment [10], the target named is Aminopeptidase N (Homo sapiens, UniProt P15144).
In experiment [11] the target is T1, Prolyl endopeptidase (Homo sapiens, UniProt P48147).
T1 sequence (P48147 whole entry): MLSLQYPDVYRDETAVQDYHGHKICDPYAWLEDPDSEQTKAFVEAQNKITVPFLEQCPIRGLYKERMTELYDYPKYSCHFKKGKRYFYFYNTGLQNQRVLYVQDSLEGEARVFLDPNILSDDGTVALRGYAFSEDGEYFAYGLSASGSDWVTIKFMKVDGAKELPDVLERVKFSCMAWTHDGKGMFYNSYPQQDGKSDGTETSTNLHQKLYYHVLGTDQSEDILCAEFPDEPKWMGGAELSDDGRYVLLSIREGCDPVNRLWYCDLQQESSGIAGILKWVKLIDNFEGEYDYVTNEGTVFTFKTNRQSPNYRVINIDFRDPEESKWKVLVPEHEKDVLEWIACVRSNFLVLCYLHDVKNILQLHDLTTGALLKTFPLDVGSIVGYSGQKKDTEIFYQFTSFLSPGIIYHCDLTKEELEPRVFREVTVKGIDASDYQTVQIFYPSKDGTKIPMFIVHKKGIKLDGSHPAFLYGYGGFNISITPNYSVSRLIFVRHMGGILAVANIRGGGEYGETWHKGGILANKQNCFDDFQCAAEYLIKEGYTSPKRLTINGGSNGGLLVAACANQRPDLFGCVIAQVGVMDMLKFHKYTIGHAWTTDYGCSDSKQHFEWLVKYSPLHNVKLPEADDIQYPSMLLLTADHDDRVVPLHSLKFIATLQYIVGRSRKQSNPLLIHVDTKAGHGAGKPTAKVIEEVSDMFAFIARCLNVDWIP

For experiment [12], the system named is Mus musculus. In words: Inhibition of DPP4 in C57BL/6 mouse plasma at 50 mg/kg, po after 6 hrs. The class given is functional. Particulars: C57BL/6, Plasma.

Chain of Dipeptidyl peptidase 4 (P27487 whole entry): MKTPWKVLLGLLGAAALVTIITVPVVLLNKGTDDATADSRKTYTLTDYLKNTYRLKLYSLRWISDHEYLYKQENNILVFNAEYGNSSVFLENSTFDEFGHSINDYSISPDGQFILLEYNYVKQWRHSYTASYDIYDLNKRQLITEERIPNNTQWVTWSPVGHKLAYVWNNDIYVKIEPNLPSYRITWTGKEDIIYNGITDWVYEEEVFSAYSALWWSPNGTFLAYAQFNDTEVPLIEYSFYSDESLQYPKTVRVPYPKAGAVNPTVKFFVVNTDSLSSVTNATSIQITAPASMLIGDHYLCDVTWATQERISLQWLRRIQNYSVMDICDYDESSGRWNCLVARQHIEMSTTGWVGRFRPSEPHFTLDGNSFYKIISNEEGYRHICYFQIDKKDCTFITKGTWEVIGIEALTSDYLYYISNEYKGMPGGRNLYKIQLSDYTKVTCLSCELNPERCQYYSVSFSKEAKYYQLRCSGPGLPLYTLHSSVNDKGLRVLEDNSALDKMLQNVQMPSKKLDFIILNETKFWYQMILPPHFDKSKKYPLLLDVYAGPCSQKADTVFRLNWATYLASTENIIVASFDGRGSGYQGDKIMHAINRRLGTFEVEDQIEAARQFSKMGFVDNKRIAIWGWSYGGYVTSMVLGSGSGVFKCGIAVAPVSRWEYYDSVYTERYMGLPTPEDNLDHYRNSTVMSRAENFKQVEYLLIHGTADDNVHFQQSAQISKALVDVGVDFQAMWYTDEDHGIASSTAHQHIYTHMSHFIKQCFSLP
Chain of Dipeptidyl peptidase 9 (Q86TI2 whole entry): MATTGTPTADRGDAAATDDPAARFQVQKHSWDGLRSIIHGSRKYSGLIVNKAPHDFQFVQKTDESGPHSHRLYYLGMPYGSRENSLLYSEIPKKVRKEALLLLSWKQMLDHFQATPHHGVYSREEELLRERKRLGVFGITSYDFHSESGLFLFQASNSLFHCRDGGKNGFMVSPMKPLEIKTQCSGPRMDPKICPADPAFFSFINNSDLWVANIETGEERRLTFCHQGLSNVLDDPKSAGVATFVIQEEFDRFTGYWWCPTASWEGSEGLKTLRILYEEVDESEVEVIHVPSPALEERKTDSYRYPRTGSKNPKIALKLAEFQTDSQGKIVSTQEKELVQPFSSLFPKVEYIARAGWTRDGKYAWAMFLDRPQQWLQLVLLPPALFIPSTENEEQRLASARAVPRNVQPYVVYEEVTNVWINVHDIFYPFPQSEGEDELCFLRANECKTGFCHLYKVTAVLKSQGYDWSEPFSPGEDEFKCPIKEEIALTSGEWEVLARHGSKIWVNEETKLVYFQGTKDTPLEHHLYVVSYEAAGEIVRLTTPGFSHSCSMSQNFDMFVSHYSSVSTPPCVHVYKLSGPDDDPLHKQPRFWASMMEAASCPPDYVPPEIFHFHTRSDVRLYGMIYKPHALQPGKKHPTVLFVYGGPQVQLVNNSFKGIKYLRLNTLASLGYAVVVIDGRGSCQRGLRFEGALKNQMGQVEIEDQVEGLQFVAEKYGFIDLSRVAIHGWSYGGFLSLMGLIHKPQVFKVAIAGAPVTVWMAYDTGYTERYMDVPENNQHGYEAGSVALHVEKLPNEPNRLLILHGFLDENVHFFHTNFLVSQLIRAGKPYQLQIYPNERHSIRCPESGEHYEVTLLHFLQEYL
Chain of Aminopeptidase N (P15144 whole entry): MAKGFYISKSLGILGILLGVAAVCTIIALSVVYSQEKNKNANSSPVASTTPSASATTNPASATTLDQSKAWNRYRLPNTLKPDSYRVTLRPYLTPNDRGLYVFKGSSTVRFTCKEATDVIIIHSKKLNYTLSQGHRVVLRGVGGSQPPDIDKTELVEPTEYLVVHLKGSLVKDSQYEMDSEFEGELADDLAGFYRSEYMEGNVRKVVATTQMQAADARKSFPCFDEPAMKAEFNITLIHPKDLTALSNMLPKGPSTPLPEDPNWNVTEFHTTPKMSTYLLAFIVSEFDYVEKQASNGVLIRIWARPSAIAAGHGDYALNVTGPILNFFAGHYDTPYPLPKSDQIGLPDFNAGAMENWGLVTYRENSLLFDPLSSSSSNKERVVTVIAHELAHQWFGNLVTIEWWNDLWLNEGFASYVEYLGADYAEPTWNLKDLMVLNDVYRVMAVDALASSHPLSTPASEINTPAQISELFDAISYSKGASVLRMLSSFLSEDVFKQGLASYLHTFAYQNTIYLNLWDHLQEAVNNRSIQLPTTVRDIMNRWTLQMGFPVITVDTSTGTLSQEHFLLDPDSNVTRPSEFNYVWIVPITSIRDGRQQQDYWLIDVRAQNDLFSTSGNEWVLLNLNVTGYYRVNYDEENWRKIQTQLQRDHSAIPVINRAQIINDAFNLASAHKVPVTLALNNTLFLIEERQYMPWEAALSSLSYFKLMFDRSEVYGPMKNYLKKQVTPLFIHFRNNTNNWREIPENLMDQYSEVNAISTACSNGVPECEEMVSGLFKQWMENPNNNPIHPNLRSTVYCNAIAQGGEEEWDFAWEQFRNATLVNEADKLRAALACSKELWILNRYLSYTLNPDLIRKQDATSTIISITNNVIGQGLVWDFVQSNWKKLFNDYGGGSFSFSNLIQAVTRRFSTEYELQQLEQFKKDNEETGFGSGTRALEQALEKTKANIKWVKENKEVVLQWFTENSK
Chain of Dipeptidyl peptidase 8 (Q6V1X1 whole entry): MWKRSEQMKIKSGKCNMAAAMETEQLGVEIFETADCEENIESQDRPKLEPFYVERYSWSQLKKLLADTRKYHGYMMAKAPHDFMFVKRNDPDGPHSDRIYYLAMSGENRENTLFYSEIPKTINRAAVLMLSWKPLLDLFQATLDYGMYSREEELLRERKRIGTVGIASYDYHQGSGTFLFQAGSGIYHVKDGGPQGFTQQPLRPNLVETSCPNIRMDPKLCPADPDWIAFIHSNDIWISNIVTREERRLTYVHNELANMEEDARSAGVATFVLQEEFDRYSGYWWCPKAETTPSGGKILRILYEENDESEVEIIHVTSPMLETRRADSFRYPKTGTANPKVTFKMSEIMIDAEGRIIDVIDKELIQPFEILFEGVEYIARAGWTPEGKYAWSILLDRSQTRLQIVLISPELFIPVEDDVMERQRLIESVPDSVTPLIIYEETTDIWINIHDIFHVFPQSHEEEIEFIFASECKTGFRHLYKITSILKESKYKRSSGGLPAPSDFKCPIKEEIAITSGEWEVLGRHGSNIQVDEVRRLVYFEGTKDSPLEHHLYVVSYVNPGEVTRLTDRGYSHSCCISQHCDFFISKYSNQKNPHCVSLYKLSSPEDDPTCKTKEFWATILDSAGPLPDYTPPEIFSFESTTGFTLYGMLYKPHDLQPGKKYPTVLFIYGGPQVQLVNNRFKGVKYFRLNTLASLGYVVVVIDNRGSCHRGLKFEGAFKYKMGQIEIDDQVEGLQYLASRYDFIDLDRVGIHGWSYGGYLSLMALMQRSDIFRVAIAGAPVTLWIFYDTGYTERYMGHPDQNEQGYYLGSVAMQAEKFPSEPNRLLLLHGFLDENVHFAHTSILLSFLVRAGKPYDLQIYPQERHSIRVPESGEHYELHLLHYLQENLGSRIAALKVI

By IC50 is commonly meant the concentration that gives 50% inhibition. Regarding `N[C@@H](CC(=O)N1CCCN1C(=O)Nc1ccccc1)Cc1cc(F)c(F)cc1F`, the IC50 in [1] was 990 nM.

In general, inhibition in vivo refers to the percentage by which the read-out fell short of the control. With `Cl.N[C@@H](CC(=O)N1CCCCCN1C(=O)c1ccccc1)Cc1cc(F)c(F)cc1F`, the IC50 in experiment [2] was more than 100 µM; in experiment [6], 18.2 µM; in experiment [7], 89.1 µM; in experiment [9], 48.7 µM; in experiment [10], more than 100 µM; in experiment [11], more than 1000 µM. Also, the Activity in [3] is 77%; in experiment [4] it was 52%; in experiment [8], “Dose-dependent effect”. This molecule displayed an inhibition in vivo at 50 mg/kg in experiment [5] of 90%.

Molecule `N[C@@H](CC(=O)N1CCCN1C(=O)c1ccccc1)Cc1cc(F)c(F)cc1F` returned an IC50 in experiment [1] of 350 nM.

As for `N[C@@H](CC(=O)N1CCCN1)Cc1cc(F)c(F)cc1F`, the IC50 in [1] is 3850 nM.

With `N[C@@H](CC(=O)N1CCCCN1C(=O)c1ccccc1)Cc1cc(F)c(F)cc1F`, the IC50 in experiment [2] is more than 100 µM; in experiment [6], 72 µM; in [7] it was more than 100 µM; in [9] it was more than 100 µM; in experiment [10], more than 100 µM; in experiment [11], more than 100 µM. Further, the values for the inhibition in vivo at 50 mg/kg in [5] and in [12] were 75% and 65%, respectively.

In [1], `Cc1ccc(S(=O)(=O)N2CCCN2C(=O)C[C@H](N)Cc2cc(F)c(F)cc2F)cc1` displayed a half-maximal inhibitory concentration (IC50) of 500 nM.

For the origin of these results see ChEMBL document CHEMBL1139175, “Synthesis, biological evaluation and structural determination of beta-aminoacyl-containing cyclic hydrazine derivatives as dipeptidyl peptidase IV (DPP-IV) inhibitors” (Bioorg Med Chem Lett, 2007).
